Experimental data: publication PMC4727972, “Chronic unpredicted mild stress-induced depression alter saxagliptin pharmacokinetics and CYP450 activity in GK rats” (PeerJ, 2016)
Where two headings read alike, the source gives them in different places.

How the values were obtained:
[1] = Pharmacokinetics of Sax in plasma after oral 0.5 mg/kg (HPLC-MS/MS, noncompartmental analysis); format: in vivo, GK rats; conditions: for AUC(0-inf) / Cmax / Tmax / MRT last / half-life / Vd/F: plasma, po; for AUC(0-inf) / Cmax / Tmax / MRT last / half-life / Vd/F / CLz/F: n = 9, mean ± SD; for MRT last: read-out: MRT0−t; for half-life: read-out: T1/2z (converted); for Vd/F: read-out: Vz/F
Method: All rats were fasted overnight but with free access to water. 0.5 mg/kg Sax (suspended in 5 g/L Carboxymethyl cellulose-Na) was given orally. Blood samples were collected by eye canthus at 0.17, 0.33, 0.5, 0.83, 1.17, 1.5, 2, 3, 5, 8 h. Then plasma samples were centrifuged to obtain plasma at 3,000 × g for 5 min. The samples were stored at −80 °C for analysis.
The Sax concentration was assayed by the HPLC-tandem mass spectrometry (MS/MS) method ([Gao et al., 2012]). A total of 100 µL plasma sample and 10 µL Sit (100 ng/mL) was added with 1.2 mL ethyl acetate in a centrifuge tube, vortex-mixed for 2 min and centrifuged at 10,000 × g for 3 min. The supernatant was evaporated to dry. The residue was re-dissolved with 100 µL methanol via vortex-mixed for 1 min and centrifuged at 16,000 × g for 1 min. 2.0 µL of the supernatant was injected into the HPLC-MS/MS system for analysis.
The HPLC equipped with a reverse-phase column was connected to a triple quadrupole tandem MS with an electrospray interface. The system consists of the LC system (Agilent 1260, Agilent, US) with a G1322A degasser, a G1318B auto-modifiable pump, a G1367E auto-sampler, a G1316A adjustable column temperature box, and the Agilent 6420 MS system. Chromatographic separation was achieved using a ZORBAX EP-C18 column (2.1 mm × 50 mm, 1.8 µm, Agilent). The mobile phase contained 35% methanol and 65% water (0.1% ammonium formate) with a flow rate 0.4 mL/min. The optimized conditions of MS were as follows: positive electrospray ionization (ESI^+) mode, capillary at 4,000 V, ion-spray gas temperature at 350 °C, gas flow rate at 11 L/min, and nebulizer at 15 psi. The parameters of Sax and Sit were as follows: fragmentary voltage at 110 V and 130 V, collision energy at 22 units and 18 units, respectively. The multiple-reaction monitoring mode was selected for quantifying of Sax and Sit, for which the precursor-to-product ion transitions were 316.1 → 179.9 and 407.9 → 234.9, respectively. The MassHunter Workstation software (Version B.06.00, Agilent) was used to collect and process data.
Statistical analysis and pharmacokinetics parameter analysis were performed with SPSS 16.0 (SPSS Inc., Chicago, IL, USA) and DAS 2.1 software (Drug and Statistics, Shanghai University of Traditional Chinese Medicine, Shanghai, China). Differences between the two groups were analyzed via independent-samples t Test. Data was expressed as mean ± standard deviation (SD). p < 0.05 was considered statistically significant.

liver microsomal enzyme = assay: Metabolism of Sax using liver microsomal enzyme in vitro; format: in vitro ADME, GK rats; conditions: decreased from 0.50 mg/mL
Method: The control and CUMS-induced rats were fasted for 12 h and killed by cervical dislocation before removal of the liver. The liver was excised, rinsed with ice-cold normal saline (0.9% NaCl, w/v), weighed for 1 g, and homogenized with 4.0 mL in a 0.05M Tris–HCl buffer (pH 7.4). The homogenate was centrifuged at 10,000 × g at 4 °C for 20 min, and the supernatant was further centrifuged at 105,000 × g at 4 °C for 60 min. The helvus sediment was reconstituted with 1.0 mL Tris–HCl buffer and stored at −80 °C for analysis.
The incubation mixtures (final volume: 500 µL) contained 1 mg/mL microsomal protein, 0.1 M phosphate buffer (PH = 7.4), 1 mM nicotinamide adenine dinucleotide phosphate (NADPH), probe drugs (1 mg/mL Phe, Ven, Nif). A total of 100 µL microsomal protein and 100 µL probe drugs were added with 250 µL phosphate buffer in a brown centrifuge tube, vortex-mixed for 1 min, and incubated at 37 °C water. After 5 min pre-incubation, the reactions were initiated by the addition of 50 µL NADPH. The incubations were performed at 37 °C for 20 min in a water bath and terminated by adding 1.4 mL cold ethyl acetate and 20 µL Lor (5 µg/mL). […]
It is well known that Sax is mainly metabolized by cytochrome 3A enzyme in the liver. […] Considering of the complicacy of metabolic system in vivo, we detected metabolism of Sax using liver microsomal enzyme in vitro with cocktails method. […]

[2] = design: method as in Fura et al., 2009; conditions: rats; ref Fura et al., 2009; cited from earlier work
[3] = GK, rat, 0.5 mg/kg, control group (diabetic GK rats), 0.5 mg/kg oral
[4] = GK, rat, 0.5 mg/kg, depression group (CUMS-induced, GK rats), 0.5 mg/kg oral
[5] = depression group vs control group, 0.5 mg/kg oral, p < 0.05

## N#C[C@@H]1C[C@@H]2C[C@@H]2N1C(=O)[C@@H](N)C12CC3CC(CC(O)(C3)C1)C2 [Sax, (S)-3-hydroxyadamantylglycine-L-cis-4,5-methanoprolinenitrile]
[1]; GK, rat, 0.5 mg/kg, single plasma sample at 5 h after oral Sax (chromatogram, Fig. 3C), group not stated
  concentration at 5 h: 3.05 ng/mL
[1]; [3]
  AUC(0-inf): 67.1 ± 14.1 ng·h/mL
  Cmax: 20.5 ± 4.61 ng/mL
  Tmax: 1.46 ± 0.38 h
  MRT last: 2.55 ± 0.32 h
  half-life: 1.73 ± 0.43 h
  Vd/F: 21 ± 8.22 L
[1]; [4]
  AUC(0-inf): 44.6 ± 15.5 ng·h/mL
  Cmax: 14.8 ± 6.03 ng/mL
  Tmax: 1.04 ± 0.25 h
  MRT last: 1.95 ± 0.57 h
  half-life: 1.58 ± 0.59 h
  Vd/F: 29.8 ± 14.2 L
[1]; control group (diabetic GK rats), 0.5 mg/kg oral
  CLz/F: 7.35 ± 1.34 L/h
[1]; depression group (CUMS-induced, GK rats), 0.5 mg/kg oral
  CLz/F: 13.05 ± 6.30 L/h
[1]; [5]
  decrease of area under curve (AUC0−∞) in the depression group: 33%
  decrease of mean residence time (MRT0−t) in the depression group: 24%
  decrease of peak concentration (Cmax) in the depression group: 27%
  decrease of peak time (Tmax) in the depression group: 29%
Liver microsomal enzyme; control group microsomes
  concentration of Sax after incubation with liver microsomal enzyme: 350000 ng/mL
Liver microsomal enzyme; depression group microsomes
  concentration of Sax after incubation with liver microsomal enzyme: 150000 ng/mL
[2]
  oral bioavailability: good oral bioavailability
